Laboratory results taken from US10101655B2, “Compound, polymer, photosensitive resin composition, and color filter” (SAMSUNG SDI CO., LTD., priority 2016, dated 2018).

Experiment: Evaluation 1: Solubility Measurement (dissolution state in dilution solvents)
Assay type: physicochemical
Settings: stirred at 25° C. and 100 rpm for one hour; for Amount of dissolved compound (wt %), CH2Cl2: solvent CH2Cl2 added to 0.5 g of compound; for Amount of dissolved compound (wt %), MeOH: solvent MeOH added to 0.5 g of compound; for Amount of dissolved compound (wt %), Cyclohexanone: solvent cyclohexanone added to 0.5 g of compound
Description: Evaluation 1: Solubility Measurement
Dilution solvents (MeOH, CH2Cl2, cyclohexanone) were respectively added to 0.5 g of the compounds represented by Chemical Formula 6-1 to Chemical Formula 17-2 and the compound represented by Chemical Formula X-1, and each solution was stirred with Mixrotar VMR-5 (Iuchi Seieido Co., Ltd.) at 25° C. and 100 rpm for one hour.

SMILES	Amount of dissolved compound (wt %), CH2Cl2 [% wt %]	Amount of dissolved compound (wt %), MeOH [% wt %]	Amount of dissolved compound (wt %), Cyclohexanone [% wt %]
CCN(CCOC(=O)NC1CCCCC1)c1ccc2c(-c3ccccc3S(=O)(=O)[N-]S(=O)(=O)C(F)(F)F)c3cc/c(=[N+](/CC)CCOC(=O)NC4CCCCC4)cc-3oc2c1 [Chemical Formula 17-2]	>10	>10	>3
C=C(C)C(=O)OCCNC(=O)OCCN(CC)c1ccc2c(-c3ccccc3S(=O)(=O)[N-]S(=O)(=O)C(F)(F)F)c3cc/c(=[N+](\CCOC(=O)NCCOC(=O)C(=C)C)c4ccccc4)cc-3oc2c1 [Chemical Formula 12-2]	>10	>10	>5
CCN(CCOC(=O)NC1CCCCC1)c1ccc2c(-c3ccccc3S(=O)(=O)[O-])c3cc/c(=[N+](/CC)CCOC(=O)NC4CCCCC4)cc-3oc2c1 [Chemical Formula 17-1]	>10	>10	>3
C=C(C)C(=O)OCCNC(=O)OCCN(CC)c1ccc2c(-c3ccccc3S(=O)(=O)[O-])c3cc/c(=[N+](\CC)c4ccccc4)cc-3oc2c1 [Chemical Formula 8-1]	>10	>10	>3
CCN(CCOC(=O)Nc1ccccc1)c1ccc2c(-c3ccccc3S(=O)(=O)[N-]S(=O)(=O)C(F)(F)F)c3ccc(=[N+](CC)CC)cc-3oc2c1 [Chemical Formula 9-2]	>10	>10	>1
C=CC(=O)OCCNC(=O)OCCN(CC)c1ccc2c(-c3ccccc3S(=O)(=O)[N-]S(=O)(=O)C(F)(F)F)c3cc/c(=[N+](/CC)CCOC(=O)NCCOC(=O)C=C)cc-3oc2c1 [Chemical Formula 14-2]	>10	>10	>5
CCN(CCOC(=O)NC1CCCCC1)c1ccc2c(-c3ccccc3S(=O)(=O)[N-]S(=O)(=O)C(F)(F)F)c3ccc(=[N+](CC)CC)cc-3oc2c1 [Chemical Formula 16-2]	>10	>10	>1
C=C(C)C(=O)OCCNC(=O)OCCN(CCCC)c1ccc2c(-c3ccccc3S(=O)(=O)[O-])c3cc/c(=[N+](\CC)CCCC)cc-3oc2c1 [Chemical Formula 7-1]	>10	>10	>3
CCN(CCOC(=O)NC1CCCCC1)c1ccc2c(-c3ccccc3S(=O)(=O)[O-])c3ccc(=[N+](CC)CC)cc-3oc2c1 [Chemical Formula 16-1]	>10	>10	>1
C=C(C)C(=O)OCCNC(=O)OCCN(CCCC)c1ccc2c(-c3ccccc3S(=O)(=O)[N-]S(=O)(=O)C(F)(F)F)c3cc/c(=[N+](/CCCC)CCOC(=O)NCCOC(=O)C(=C)C)cc-3oc2c1 [Chemical Formula 11-2]	>10	>10	>5
CCN(CC)c1ccc2c(-c3ccccc3S(=O)(=O)O)c3ccc(=[N+](CC)CC)cc-3oc2c1 [Chemical Formula X-1, reference compound]	<1	>10	<1
C=C(C)C(=O)OCCNC(=O)OCCN(CC)c1ccc2c(-c3ccccc3S(=O)(=O)[N-]S(=O)(=O)C(F)(F)F)c3cc/c(=[N+](/CC)CCOC(=O)NCCOC(=O)C(=C)C)cc-3oc2c1 [Chemical Formula 10-2]	>10	>10	>5
CCN(CCOC(=O)Nc1ccccc1)c1ccc2c(-c3ccccc3S(=O)(=O)[O-])c3cc/c(=[N+](/CC)CCOC(=O)Nc4ccccc4)cc-3oc2c1 [Chemical Formula 13-1]	>10	>10	>3
C=C(C)c1cccc(C(C)(C)NC(=O)OCCN(CC)c2ccc3c(-c4ccccc4S(=O)(=O)[N-]S(=O)(=O)C(F)(F)F)c4cc/c(=[N+](/CC)CCOC(=O)NC(C)(C)c5cccc(C(=C)C)c5)cc-4oc3c2)c1 [Chemical Formula 15-2]	>10	>10	>5
C=C(C)C(=O)OCCNC(=O)OCCN(CC)c1ccc2c(-c3ccccc3S(=O)(=O)[O-])c3cc/c(=[N+](/CC)CCOC(=O)NCCOC(=O)C(=C)C)cc-3oc2c1 [Chemical Formula 10-1]	>10	>10	>5
C=C(C)c1cccc(C(C)(C)NC(=O)OCCN(CC)c2ccc3c(-c4ccccc4S(=O)(=O)[O-])c4cc/c(=[N+](/CC)CCOC(=O)NC(C)(C)c5cccc(C(=C)C)c5)cc-4oc3c2)c1 [Chemical Formula 15-1]	>10	>10	>5
C=C(C)C(=O)OCCNC(=O)OCCN(CCCC)c1ccc2c(-c3ccccc3S(=O)(=O)[O-])c3cc/c(=[N+](/CCCC)CCOC(=O)NCCOC(=O)C(=C)C)cc-3oc2c1 [Chemical Formula 11-1]	>10	>10	>5
C=C(C)C(=O)OCCNC(=O)OCCN(CCCC)c1ccc2c(-c3ccccc3S(=O)(=O)[N-]S(=O)(=O)C(F)(F)F)c3cc/c(=[N+](\CC)CCCC)cc-3oc2c1 [Chemical Formula 7-2]	>10	>10	>3
C=C(C)C(=O)OCCNC(=O)OCCN(CC)c1ccc2c(-c3ccccc3S(=O)(=O)[N-]S(=O)(=O)C(F)(F)F)c3cc/c(=[N+](\CC)c4ccccc4)cc-3oc2c1 [Chemical Formula 8-2]	>10	>10	>3
C=CC(=O)OCCNC(=O)OCCN(CC)c1ccc2c(-c3ccccc3S(=O)(=O)[O-])c3cc/c(=[N+](/CC)CCOC(=O)NCCOC(=O)C=C)cc-3oc2c1 [Chemical Formula 14-1]	>10	>10	>5
CCN(CCOC(=O)Nc1ccccc1)c1ccc2c(-c3ccccc3S(=O)(=O)[O-])c3ccc(=[N+](CC)CC)cc-3oc2c1 [Chemical Formula 9-1]	>10	>10	>1
C=C(C)C(=O)OCCNC(=O)OCCN(CC)c1ccc2c(-c3ccccc3S(=O)(=O)[O-])c3cc/c(=[N+](\CCOC(=O)NCCOC(=O)C(=C)C)c4ccccc4)cc-3oc2c1 [Chemical Formula 12-1]	>10	>10	>5
C=C(C)C(=O)OCCNC(=O)OCCN(CC)c1ccc2c(-c3ccccc3S(=O)(=O)[N-]S(=O)(=O)C(F)(F)F)c3ccc(=[N+](CC)CC)cc-3oc2c1 [Chemical Formula 6-2]	>10	>10	>3
CCN(CCOC(=O)Nc1ccccc1)c1ccc2c(-c3ccccc3S(=O)(=O)[N-]S(=O)(=O)C(F)(F)F)c3cc/c(=[N+](/CC)CCOC(=O)Nc4ccccc4)cc-3oc2c1 [Chemical Formula 13-2]	>10	>10	>3
C=C(C)C(=O)OCCNC(=O)OCCN(CC)c1ccc2c(-c3ccccc3S(=O)(=O)[O-])c3ccc(=[N+](CC)CC)cc-3oc2c1 [Chemical Formula 6-1]	>10	>10	>3
